# Measured values published in patent US20260176266A1, “PIPERIDINOPYRIMIDINE DERIVATIVE, PREPARATION METHOD THEREFOR AND USE THEREOF IN MEDICINE” (TUOJIE BIOTECH (SHANGHAI) CO., LTD., priority 2022, published 2026).
# Columns and labels:
# CDK9/Cyclin T1 = CDK9/Cyclin T1 (Homo sapiens, UniProt P50750); assay: ADP-Glo kinase assay, CDK9; assay type: biochemical; settings: 15.3 nM CDK9/Cyclin T1, 60 μM ATP (Km), PDKtide, 120 min; read-out: inhibitory activity (IC50, nM) CDK9
# Protocol: (§1) The ADP-Glo kinase assay was used for testing the activity of CDKs. The compounds were diluted in 384-well plates using Echo. The starting concentration was 10 μM and was 3-fold diluted to obtain 10 concentration points, each tested in duplicate, and the final concentration of DMSO in the assay system was 1%. CDK solutions (the final concentrations were 16.5 nM CDK1/CyclinB, 1 nM CDK2/CyclinE1, 16.3 nM CDK4/CyclinD1, 11.5 nM CDK5/p25, 15.7 nM CDK6/CyclinD3, 80 nM CDK7/Cyclin H/MAT1, 15.3 nM CDK9/Cyclin T1, and 150 nM CDK12/CyclinK) prepared in assay buffer were added at 2.5 μL, and the enzymes and compounds were pre-incubated at room temperature for 10 min. ATP (the concentration was Km) & substrate solutions (20 μM ATP & 0.1 mg/mL Histone H1 Protein for CDK1/CyclinB, 15 μM ATP & 0.1 mg/mL Histone H1 Protein for CDK2/CyclinE1, 200 μM ATP & 0.2 mg/mL DYRKtide peptide for CDK4/CyclinD1, 10 μM ATP & 0.1 mg/mL Histone H1 Protein for CDK5/p25, 200 μM ATP & 0.1 mg/mL Histone H1 Protein for CDK6/CyclinD3, 70 μM ATP & 0.2 mg/mL MBP for CDK7/Cyclin H/MAT1, 60 μM ATP & 0.2 mg/mL PDKtide for CDK9/Cyclin T1, and 20 μM ATP & 80 μM pS7-CTD peptide for CDK12/CyclinK) prepared in assay buffer were added at 2.5 μL. […] Readings were taken using an Envision multimode microplate reader. Data were processed using GraphPad Prism 8, and IC50 was calculated. […]
# CDK1/CyclinB = CDK1/CyclinB (Homo sapiens, UniProt P06493); assay: ADP-Glo kinase assay, CDK1; assay type: biochemical; settings: 16.5 nM CDK1/CyclinB, 20 μM ATP (Km), Histone H1, 120 min; read-out: inhibitory activity (IC50, nM) CDK1
# Protocol: as §1
# [1] = system: MDA-MB-231 breast cancer cells; assay: Inhibitory activity against tumor cells, CellTiter-Glo: MDA-MB-231; assay type: cell-based; settings: Homo sapiens, 120 h, MDA-MB-231, 5 days treatment
# Protocol: (§2) MCF7 (ATCC #HTB-22) and T47D (ATCC #HTB-133) breast cancer cells and PANC-1 (ATCC #CRL-1469) pancreatic cancer cells were purchased from ATCC. MDA-MB-231 (Cobioer #CBP60382), HCC1806 (Cobioer #CBP60373), and MDA-MB-468 (Cobioer #CBP60387) breast cancer cells, HCT-116 (Cobioer #CBP60028) colorectal cancer cells, and OCI-AML-3 (Cobioer #CBP60817) and MV-4-11 (Cobioer #CBP60522) leukemia cells were purchased from Nanjing Cobioer Biosciences Co., Ltd.
# (§3) OCI-AML-3 was cultured in RPMI 1640 medium with 20% FBS; HCC1806 and T47D were cultured in RPMI 1640 medium with 10% FBS; MCF7, MDA-MB-231, MDA-MB-468, and PANC-1 were cultured in DMEM medium with 10% FBS; MV-4-11 was cultured in IMDM medium with 20% FBS; HCT-116 was cultured in MC′5A medium with 10% FBS.
# (§4) Palbociclib-resistant cells were constructed on MCF7 parent cells, designated MCF7 Palbo-R, and the culture conditions were consistent with those of the parent cells. All tumor cells were cultured in a cell incubator at 37° C. with 5% CO2. The cells were seeded at corresponding cell densities (600 cells/well for MDA-MB-231; 500 cells/well for MDA-MB-468, PANC-1, and HCT-116; 200 cells/well for MCF7 and HCC1806; 800 cells/well for MCF7 Palbo-R; 3000 cells/well for OCI-AML-3 and MV-4-11) in 384-well plates and cultured overnight in the incubator. On the second day, the cells were treated with compounds. The maximum compound concentration was 10 μM and was 3-fold diluted to obtain 9 concentrations, each tested in duplicate, and the final concentration of DMSO was 0.1%. The cells continued to be cultured in the incubator, with MDA-MB-231, PANC-1, MDA-MB-468, OCI-AML-3, and MV-4-11 being treated with drugs for 5 days and HCC1806, MCF7, MCF7 Palbo-R, and HCT116 being treated with drugs for 7 days. Cell viability was tested using the Celltiter Glo assay kit (Promega), and the testing method was consistent with the operational method provided by the kit. Readings were taken using an Envision multimode microplate reader. Data were processed using GraphPad Prism 8, and IC50 was calculated. […]
# CDK12/CyclinK = CDK12/CyclinK (Homo sapiens, UniProt Q9NYV4); assay: ADP-Glo kinase assay, CDK12; assay type: biochemical; settings: 150 nM CDK12/CyclinK, 20 μM ATP (Km), pS7-CTD peptide, 120 min; read-out: inhibitory activity (IC50, nM) CDK12
# Protocol: as §1
# OCI-AML-3 leukemia cells = assay: Inhibitory activity against tumor cells, CellTiter-Glo: OCI-AML-3; assay type: cell-based; settings: Homo sapiens, 120 h, OCI-AML-3, 5 days treatment
# Protocol: as §2, §3, §4
# CDK2/CyclinE1 = CDK2/CyclinE1 (Homo sapiens, UniProt P24941); assay: ADP-Glo kinase assay, CDK2; assay type: biochemical; settings: 1 nM CDK2/CyclinE1, 15 μM ATP (Km), Histone H1, 60 min; read-out: inhibitory activity (IC50, nM) CDK2
# Protocol: The ADP-Glo kinase assay was used for testing the activity of CDKs. The compounds were diluted in 384-well plates using Echo. The starting concentration was 10 μM and was 3-fold diluted to obtain 10 concentration points, each tested in duplicate, and the final concentration of DMSO in the assay system was 1%. CDK solutions (the final concentrations were 16.5 nM CDK1/CyclinB, 1 nM CDK2/CyclinE1, 16.3 nM CDK4/CyclinD1, 11.5 nM CDK5/p25, 15.7 nM CDK6/CyclinD3, 80 nM CDK7/Cyclin H/MAT1, 15.3 nM CDK9/Cyclin T1, and 150 nM CDK12/CyclinK) prepared in assay buffer were added at 2.5 μL, and the enzymes and compounds were pre-incubated at room temperature for 10 min. ATP (the concentration was Km) & substrate solutions (20 μM ATP & 0.1 mg/mL Histone H1 Protein for CDK1/CyclinB, 15 μM ATP & 0.1 mg/mL Histone H1 Protein for CDK2/CyclinE1, 200 μM ATP & 0.2 mg/mL DYRKtide peptide for CDK4/CyclinD1, 10 μM ATP & 0.1 mg/mL Histone H1 Protein for CDK5/p25, 200 μM ATP & 0.1 mg/mL Histone H1 Protein for CDK6/CyclinD3, 70 μM ATP & 0.2 mg/mL MBP for CDK7/Cyclin H/MAT1, 60 μM ATP & 0.2 mg/mL PDKtide for CDK9/Cyclin T1, and 20 μM ATP & 80 μM pS7-CTD peptide for CDK12/CyclinK) prepared in assay buffer were added at 2.5 μL. After thorough mixing, the plates were incubated at room temperature, with CDK1/4/9/12/13 incubated for 120 min and CDK2/5/6/7 incubated for 60 min. ADP-Glo reagents were added at 4 μL, and the plates were incubated at room temperature for 40 min. Kinase detection reagents were added at 8 μL, and the plates were incubated at room temperature for 40 min. Readings were taken using an Envision multimode microplate reader. Data were processed using GraphPad Prism 8, and IC50 was calculated.
# [formula] • X: the logarithm of the compound concentration; Y: % inhibition.
# CDK4/CyclinD1 = CDK4/CyclinD1 (Homo sapiens, UniProt P11802); assay: ADP-Glo kinase assay, CDK4; assay type: biochemical; settings: 16.3 nM CDK4/CyclinD1, 200 μM ATP (Km), DYRKtide peptide, 120 min; read-out: inhibitory activity (IC50, nM) CDK4
# Protocol: as §1
# T47D breast cancer cells = assay: Inhibitory activity against tumor cells, CellTiter-Glo: T47D; assay type: cell-based; settings: Homo sapiens
# Protocol: as §2, §3
# (§5) Palbociclib-resistant cells were constructed on MCF7 parent cells, designated MCF7 Palbo-R, and the culture conditions were consistent with those of the parent cells. All tumor cells were cultured in a cell incubator at 37° C. with 5% CO2. The cells were seeded at corresponding cell densities (600 cells/well for MDA-MB-231; 500 cells/well for MDA-MB-468, PANC-1, and HCT-116; 200 cells/well for MCF7 and HCC1806; 800 cells/well for MCF7 Palbo-R; 3000 cells/well for OCI-AML-3 and MV-4-11) in 384-well plates and cultured overnight in the incubator. On the second day, the cells were treated with compounds. The maximum compound concentration was 10 μM and was 3-fold diluted to obtain 9 concentrations, each tested in duplicate, and the final concentration of DMSO was 0.1%. The cells continued to be cultured in the incubator, with MDA-MB-231, PANC-1, MDA-MB-468, OCI-AML-3, and MV-4-11 being treated with drugs for 5 days and HCC1806, MCF7, MCF7 Palbo-R, and HCT116 being treated with drugs for 7 days. Cell viability was tested using the Celltiter Glo assay kit (Promega), and the testing method was consistent with the operational method provided by the kit. Readings were taken using an Envision multimode microplate reader. Data were processed using GraphPad Prism 8, and IC50 was calculated.
# (§6) Y=Bottom+(Top−Bottom)/(1+10^((Log IC50−X)×HillSlope)). Calculation formula: • X: the logarithm of the compound concentration; Y: % inhibition.
# various tumor cell lines = assay: Inhibitory activity against tumor cells, summary over the panel of Tables 4 and 5; assay type: cell-based; settings: summary of Tables 4 and 5
# Protocol: as §2, §3, §5, §6
# MCF7 breast cancer cells = assay: Inhibitory activity against tumor cells, CellTiter-Glo: MCF7; assay type: cell-based; settings: Homo sapiens, 168 h, MCF7, 7 days treatment
# Protocol: as §2, §3, §4
# Chain of CDK4/CyclinD1 (P11802 whole entry, species assumed): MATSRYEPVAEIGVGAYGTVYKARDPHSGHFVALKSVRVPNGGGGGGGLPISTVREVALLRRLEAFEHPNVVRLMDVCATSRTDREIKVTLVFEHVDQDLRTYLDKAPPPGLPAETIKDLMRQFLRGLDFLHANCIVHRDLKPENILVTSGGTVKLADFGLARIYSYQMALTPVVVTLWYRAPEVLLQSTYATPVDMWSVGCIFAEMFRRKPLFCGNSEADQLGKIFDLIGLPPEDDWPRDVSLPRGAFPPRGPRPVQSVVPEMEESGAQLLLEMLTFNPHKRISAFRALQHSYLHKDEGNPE
# Chain of CDK4/CyclinD1 (P24385 whole entry partner, species assumed): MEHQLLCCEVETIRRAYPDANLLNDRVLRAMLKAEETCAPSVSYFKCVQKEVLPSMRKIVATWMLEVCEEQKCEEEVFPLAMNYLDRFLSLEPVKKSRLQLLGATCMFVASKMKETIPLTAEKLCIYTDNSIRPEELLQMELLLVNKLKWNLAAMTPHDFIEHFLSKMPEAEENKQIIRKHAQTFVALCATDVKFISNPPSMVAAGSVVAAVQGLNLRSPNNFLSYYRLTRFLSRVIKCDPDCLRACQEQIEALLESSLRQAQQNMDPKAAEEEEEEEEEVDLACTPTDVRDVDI
# Chain of CDK12/CyclinK (Q9NYV4 whole entry, species assumed): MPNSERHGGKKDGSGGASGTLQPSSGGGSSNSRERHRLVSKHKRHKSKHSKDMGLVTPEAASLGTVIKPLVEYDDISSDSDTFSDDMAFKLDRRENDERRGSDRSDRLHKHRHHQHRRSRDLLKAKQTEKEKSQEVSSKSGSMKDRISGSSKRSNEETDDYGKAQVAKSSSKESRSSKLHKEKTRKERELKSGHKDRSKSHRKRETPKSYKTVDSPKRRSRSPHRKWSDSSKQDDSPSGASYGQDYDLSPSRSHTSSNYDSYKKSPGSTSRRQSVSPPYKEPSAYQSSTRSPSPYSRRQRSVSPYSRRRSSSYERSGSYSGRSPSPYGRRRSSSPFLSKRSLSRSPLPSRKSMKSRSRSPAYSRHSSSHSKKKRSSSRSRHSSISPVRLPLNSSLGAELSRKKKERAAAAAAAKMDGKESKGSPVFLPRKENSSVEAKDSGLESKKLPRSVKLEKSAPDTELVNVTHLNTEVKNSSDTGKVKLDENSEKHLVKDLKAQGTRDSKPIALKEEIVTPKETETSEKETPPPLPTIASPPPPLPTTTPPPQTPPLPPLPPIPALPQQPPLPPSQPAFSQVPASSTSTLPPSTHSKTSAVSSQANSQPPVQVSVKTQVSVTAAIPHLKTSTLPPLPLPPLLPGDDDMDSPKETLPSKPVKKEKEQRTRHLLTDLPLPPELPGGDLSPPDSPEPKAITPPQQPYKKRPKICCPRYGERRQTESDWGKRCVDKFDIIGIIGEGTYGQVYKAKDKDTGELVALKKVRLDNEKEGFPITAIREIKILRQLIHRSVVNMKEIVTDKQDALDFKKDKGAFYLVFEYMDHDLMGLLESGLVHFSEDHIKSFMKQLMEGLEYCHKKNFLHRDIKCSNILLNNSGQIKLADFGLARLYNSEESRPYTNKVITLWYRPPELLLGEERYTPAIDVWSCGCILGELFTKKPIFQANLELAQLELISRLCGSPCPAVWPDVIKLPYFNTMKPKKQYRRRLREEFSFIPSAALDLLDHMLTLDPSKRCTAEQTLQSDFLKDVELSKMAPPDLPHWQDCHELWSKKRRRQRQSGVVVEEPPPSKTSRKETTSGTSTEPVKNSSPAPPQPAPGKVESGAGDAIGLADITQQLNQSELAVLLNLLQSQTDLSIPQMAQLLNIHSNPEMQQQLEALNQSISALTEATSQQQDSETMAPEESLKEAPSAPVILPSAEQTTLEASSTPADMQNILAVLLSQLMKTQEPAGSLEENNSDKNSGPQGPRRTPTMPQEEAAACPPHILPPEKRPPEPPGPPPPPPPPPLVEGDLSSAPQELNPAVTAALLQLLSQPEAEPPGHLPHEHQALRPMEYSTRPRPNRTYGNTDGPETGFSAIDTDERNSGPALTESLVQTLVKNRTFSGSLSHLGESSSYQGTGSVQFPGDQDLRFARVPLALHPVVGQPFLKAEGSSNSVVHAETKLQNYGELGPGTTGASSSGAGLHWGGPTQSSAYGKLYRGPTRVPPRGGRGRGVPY
# Chain of CDK12/CyclinK (O75909 whole entry partner, species assumed): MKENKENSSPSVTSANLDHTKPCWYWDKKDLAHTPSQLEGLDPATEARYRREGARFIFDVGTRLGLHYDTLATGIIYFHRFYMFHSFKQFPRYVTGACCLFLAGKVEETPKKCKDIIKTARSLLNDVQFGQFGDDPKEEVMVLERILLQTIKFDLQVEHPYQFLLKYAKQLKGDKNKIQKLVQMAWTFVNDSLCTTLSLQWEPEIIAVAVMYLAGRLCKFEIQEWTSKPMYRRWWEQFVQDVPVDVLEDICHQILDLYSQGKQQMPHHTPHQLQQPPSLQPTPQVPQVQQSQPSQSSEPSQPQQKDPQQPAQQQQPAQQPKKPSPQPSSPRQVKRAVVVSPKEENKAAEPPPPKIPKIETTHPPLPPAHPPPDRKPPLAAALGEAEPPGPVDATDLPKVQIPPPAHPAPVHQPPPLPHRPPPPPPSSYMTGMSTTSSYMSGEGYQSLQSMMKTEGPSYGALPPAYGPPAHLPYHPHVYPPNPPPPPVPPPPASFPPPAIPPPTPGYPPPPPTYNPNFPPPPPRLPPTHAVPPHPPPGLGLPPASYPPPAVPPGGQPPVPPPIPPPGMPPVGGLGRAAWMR
# Chain of CDK9/Cyclin T1 (P50750 whole entry, species assumed): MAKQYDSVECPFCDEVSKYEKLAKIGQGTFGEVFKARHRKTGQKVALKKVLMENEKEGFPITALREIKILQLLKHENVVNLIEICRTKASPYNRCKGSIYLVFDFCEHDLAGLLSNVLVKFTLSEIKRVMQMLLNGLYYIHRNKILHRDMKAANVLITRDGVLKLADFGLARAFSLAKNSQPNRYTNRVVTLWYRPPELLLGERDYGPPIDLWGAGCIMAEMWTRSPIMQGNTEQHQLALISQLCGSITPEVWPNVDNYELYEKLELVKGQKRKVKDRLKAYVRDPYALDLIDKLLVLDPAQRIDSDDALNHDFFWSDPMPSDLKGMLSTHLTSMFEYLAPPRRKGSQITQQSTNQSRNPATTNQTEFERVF
# Chain of CDK9/Cyclin T1 (O60563 whole entry partner, species assumed): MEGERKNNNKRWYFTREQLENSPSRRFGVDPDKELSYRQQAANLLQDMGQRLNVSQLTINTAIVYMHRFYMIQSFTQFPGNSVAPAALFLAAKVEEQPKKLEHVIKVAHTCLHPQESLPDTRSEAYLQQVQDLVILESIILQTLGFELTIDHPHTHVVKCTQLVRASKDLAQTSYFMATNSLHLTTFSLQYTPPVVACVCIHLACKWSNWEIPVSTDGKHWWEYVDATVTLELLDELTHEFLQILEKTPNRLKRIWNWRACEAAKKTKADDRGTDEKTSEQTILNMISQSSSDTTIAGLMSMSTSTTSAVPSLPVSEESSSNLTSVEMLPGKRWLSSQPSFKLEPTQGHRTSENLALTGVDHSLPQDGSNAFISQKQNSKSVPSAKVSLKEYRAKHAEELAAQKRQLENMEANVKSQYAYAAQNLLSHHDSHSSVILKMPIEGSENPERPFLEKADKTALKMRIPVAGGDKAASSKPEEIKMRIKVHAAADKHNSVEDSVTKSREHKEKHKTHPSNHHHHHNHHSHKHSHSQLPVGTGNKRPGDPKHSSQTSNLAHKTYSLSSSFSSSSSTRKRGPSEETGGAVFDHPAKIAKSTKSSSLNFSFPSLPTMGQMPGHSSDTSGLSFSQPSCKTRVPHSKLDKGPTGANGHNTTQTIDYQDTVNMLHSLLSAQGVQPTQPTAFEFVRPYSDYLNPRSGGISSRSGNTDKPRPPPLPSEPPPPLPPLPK
# Chain of CDK1/CyclinB (P06493 whole entry, species assumed): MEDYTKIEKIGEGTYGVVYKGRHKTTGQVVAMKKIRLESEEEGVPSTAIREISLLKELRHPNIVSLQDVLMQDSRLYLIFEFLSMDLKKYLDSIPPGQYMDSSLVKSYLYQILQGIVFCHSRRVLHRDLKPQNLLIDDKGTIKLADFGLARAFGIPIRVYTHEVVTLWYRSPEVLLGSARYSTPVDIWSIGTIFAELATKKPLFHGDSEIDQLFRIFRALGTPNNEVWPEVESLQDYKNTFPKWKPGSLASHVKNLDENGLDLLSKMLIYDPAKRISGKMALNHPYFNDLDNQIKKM
# Chain of CDK1/CyclinB (P14635 whole entry partner, species assumed): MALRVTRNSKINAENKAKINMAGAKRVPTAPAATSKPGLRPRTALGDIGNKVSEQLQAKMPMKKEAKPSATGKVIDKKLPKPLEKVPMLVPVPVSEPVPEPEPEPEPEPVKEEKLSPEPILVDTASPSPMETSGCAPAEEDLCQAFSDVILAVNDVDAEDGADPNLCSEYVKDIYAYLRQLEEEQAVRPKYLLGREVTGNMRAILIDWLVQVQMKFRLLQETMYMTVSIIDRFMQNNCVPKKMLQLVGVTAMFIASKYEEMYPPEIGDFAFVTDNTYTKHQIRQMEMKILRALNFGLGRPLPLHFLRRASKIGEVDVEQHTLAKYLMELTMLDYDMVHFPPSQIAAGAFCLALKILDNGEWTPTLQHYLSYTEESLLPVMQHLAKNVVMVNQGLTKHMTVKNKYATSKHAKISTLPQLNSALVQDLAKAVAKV
IC50 (CDK9/Cyclin T1) [nM],IC50 (CDK1/CyclinB) [nM],IC50 [1] [nM],IC50 (CDK12/CyclinK) [nM],IC50 (OCI-AML-3 leukemia cells) [nM],IC50 (CDK2/CyclinE1) [nM],IC50 (CDK4/CyclinD1) [nM],IC50 (T47D breast cancer cells) [nM],IC50 (MCF7 breast cancer cells) [nM],Compound,inhibitory activity against the various tumor cell lines (in words) (various tumor cell lines)
1580,> 10000,25.4,> 10000,33.2,2330,> 10000,31,14.6,"C[C@@H]1Cc2cnc(NCc3ccn(C)n3)nc2CN1C(=O)N[C@H](CN(C)C)c1ccccc1 [Example 2, (R)—N—((S)-2-(Dimethylamino)-1-phenylethyl)-6-methyl-2-(((1-methyl-TH-pyrazol-3-yl)methyl)amino)-5,8-dihydropyrido[3,4-d]pyrimidine-7(6H)-carboxamide]",high inhibitory activity
4270,> 10000,23.2,> 10000,33.4,1900,> 10000,22.2,11.8,"C[C@H](Nc1ncc2c(n1)CN(C(=O)N[C@H](CN(C)C)c1ccccc1)[C@H](C)C2)c1ccccn1 [Example 6, (R)—N—((S)-2-(Dimethylamino)-1-phenylethyl)-6-methyl-2-(((S)-1-(pyridin-2-yl)ethyl)amino)-5,8-dihydropyrido[3,4-d]pyrimidine-7(6H)-carboxamide]",high inhibitory activity
